These results are taken from ChEMBL document CHEMBL1125208, “Applications of neural networks in quantitative structure-activity relationships of dihydrofolate reductase inhibitors” (J Med Chem, 1991).

Molecules are shown by their SMILES.

The target in this test is T1, Dihydrofolate reductase (Mus musculus) (UniProt P00375).
T1 sequence (whole entry): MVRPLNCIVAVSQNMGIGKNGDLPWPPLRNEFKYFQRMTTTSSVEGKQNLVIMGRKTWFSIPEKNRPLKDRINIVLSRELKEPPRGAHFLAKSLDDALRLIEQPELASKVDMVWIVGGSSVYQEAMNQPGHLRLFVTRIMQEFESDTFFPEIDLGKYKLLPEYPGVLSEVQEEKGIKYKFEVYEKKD
The test can be described thus: Inhibition of dihydrofolate reductase from L1210 leukemia tumors.
Take `CC1(C)N=C(N)N=C(N)N1c1ccc(Cl)c(OCCCOc2ccc(S(=O)(=O)F)cc2)c1`: the Log 1/C was 7.51.

The molecule `CC1(C)N=C(N)N=C(N)N1c1ccc(CCCCc2cccc(Cl)c2S(=O)(=O)F)c(Cl)c1` came in with a Log 1/C of 8.2.

Molecule `CC1(C)N=C(N)N=C(N)N1c1ccc(OCCCNC(=O)Nc2ccc(S(=O)(=O)F)cc2)c(Cl)c1` registered a Log 1/C of 7.68.

With `CC1(C)N=C(N)N=C(N)N1c1cccc(CNC(=O)Nc2cccc(C#N)c2)c1`, the Log 1/C turned out to be 8.19.

Molecule `CC1(C)N=C(N)N=C(N)N1c1ccc(Cl)c(OCCOc2ccc(S(=O)(=O)F)cc2)c1` yielded a Log 1/C of 7.27.

In the case of `Cc1cc(NC(=O)NCCOc2ccc(N3C(N)=NC(N)=NC3(C)C)cc2Cl)ccc1S(=O)(=O)F`, the Log 1/C worked out at 7.82.

Regarding `CC1(C)N=C(N)N=C(N)N1c1cc(Cl)c(OCC(=O)Nc2ccc(S(=O)(=O)F)cc2)c(Cl)c1`, the Log 1/C amounted to 7.74.

Turning to `CC1(C)N=C(N)N=C(N)N1c1ccc(OCCCNC(=O)Nc2cccc(S(=O)(=O)F)c2)c(Cl)c1`, the Log 1/C turned out to be 7.28.

Regarding `CC1(C)N=C(N)N=C(N)N1c1ccc(OCc2ccccc2S(=O)(=O)F)c(Cl)c1`, the Log 1/C worked out at 7.43.

`CN(C(=O)COc1ccc(N2C(N)=NC(N)=NC2(C)C)cc1Cl)c1ccc(S(=O)(=O)F)cc1` gave a Log 1/C of 7.47.

As to `Cc1cc(NC(=O)NCc2ccc(N3C(N)=NC(N)=NC3(C)C)cc2)ccc1S(=O)(=O)F`, the Log 1/C was determined as 7.72.

As for `CC1(C)N=C(N)N=C(N)N1c1cccc(CCCCc2ccc(S(=O)(=O)F)c(Cl)c2)c1`, the Log 1/C amounted to 7.7.

Regarding `CC1(C)N=C(N)N=C(N)N1c1ccc(Cl)c(OCCCCOc2ccc(S(=O)(=O)F)cc2)c1`, the Log 1/C is 7.17.

The molecule `CC1(C)N=C(N)N=C(N)N1c1ccc(OCc2c(Cl)cccc2S(=O)(=O)F)c(Cl)c1` came in with a Log 1/C of 7.72.

Regarding `CC1(C)N=C(N)N=C(N)N1c1ccc(CCCCc2ccc(S(=O)(=O)F)cc2Cl)cc1`, the Log 1/C worked out at 7.96.

For the molecule `CC1(C)N=C(N)N=C(N)N1c1ccc(Cl)c(OCCCCCOc2ccc(S(=O)(=O)F)cc2)c1`, the Log 1/C is 6.72.

For `CC1(C)N=C(N)N=C(N)N1c1ccc(OCCCCNC(=O)Nc2cccc(S(=O)(=O)F)c2)c(Cl)c1`, the Log 1/C came out at 7.7.

Consider `CC1(C)N=C(N)N=C(N)N1c1ccc(CCCCc2ccccc2)c(Cl)c1`, for which the Log 1/C is 7.92.

In the case of `CC1(C)N=C(N)N=C(N)N1c1cccc(CCCCc2ccc(S(=O)(=O)F)cc2)c1`, the Log 1/C is 8.1.

As to `CC1(C)N=C(N)N=C(N)N1c1ccc(CNC(=O)Nc2ccc(S(=O)(=O)F)cc2)c(Cl)c1`, the Log 1/C was found to be 7.92.

With `CC1(C)N=C(N)N=C(N)N1c1ccc(CCc2cccc(Cl)c2S(=O)(=O)F)c(Cl)c1`, the Log 1/C is 8.3.

In turn, `CC(Oc1ccc(N2C(N)=NC(N)=NC2(C)C)cc1Cl)C(=O)Nc1ccc(S(=O)(=O)F)cc1` (configuration not stated) registered a Log 1/C of 7.13.

With `CC1(C)N=C(N)N=C(N)N1c1cccc(CNC(=O)Nc2cccc(Cl)c2)c1`, the Log 1/C was 8.05.

Regarding `CC1(C)N=C(N)N=C(N)N1c1ccc(CCCCc2ccc(S(=O)(=O)F)cc2)cc1`, the Log 1/C stood at 7.7.

In turn, `CC1(C)N=C(N)N=C(N)N1c1cccc(CCCCc2cc(Cl)ccc2S(=O)(=O)F)c1` had a Log 1/C of 7.96.

Consider `CC1(C)N=C(N)N=C(N)N1c1cccc(CNC(=O)Nc2cccc([N+](=O)[O-])c2)c1`, for which the Log 1/C worked out at 8.1.

The molecule `CC1(C)N=C(N)N=C(N)N1c1ccc(OCCCCOc2ccc(S(=O)(=O)F)cc2)c(Cl)c1` came in with a Log 1/C of 7.57.

The molecule `CC1(C)N=C(N)N=C(N)N1c1ccc(OCc2cccc(C(=O)Nc3cccc(S(=O)(=O)F)c3)c2)c(Cl)c1` displayed a Log 1/C of 7.24.

As for `CC1(C)N=C(N)N=C(N)N1c1ccc(OCc2cccc(S(=O)(=O)F)c2)c(Cl)c1`, the Log 1/C was found to be 7.72.

For `CC1(C)N=C(N)N=C(N)N1c1ccc(OCCCC(=O)Nc2cccc(S(=O)(=O)F)c2)c(Cl)c1`, the Log 1/C came out at 7.17.

With `CC1(C)N=C(N)N=C(N)N1c1cccc(OCC(=O)Nc2ccc(S(=O)(=O)F)cc2)c1`, the Log 1/C was determined as 6.92.

Molecule `CC1(C)N=C(N)N=C(N)N1c1ccc(CCCCc2ccc(S(=O)(=O)F)c(Cl)c2)c(Cl)c1` came in with a Log 1/C of 7.7.

Consider `CC1(C)N=C(N)N=C(N)N1c1ccc(OCc2cccc(Cl)c2S(=O)(=O)F)c(Cl)c1`, for which the Log 1/C was determined as 7.42.

On to `CC1(C)N=C(N)N=C(N)N1c1ccc(CCCCc2ccccc2S(=O)(=O)F)c(Cl)c1`, for which the Log 1/C came to 7.77.

Take `CC1(C)N=C(N)N=C(N)N1c1ccc(CCc2ccc(S(=O)(=O)F)cc2Cl)c(Cl)c1`: the Log 1/C was 8.33.

Turning to `CC1(C)N=C(N)N=C(N)N1c1ccc(OCc2ccc(C(=O)Nc3cccc(S(=O)(=O)F)c3)cc2)c(Cl)c1`, the Log 1/C stood at 7.41.

On to `CC1(C)N=C(N)N=C(N)N1c1ccc(Cl)c(CCCCc2ccc(S(=O)(=O)F)cc2)c1`, for which the Log 1/C stood at 6.77.

`CC1(C)N=C(N)N=C(N)N1c1ccc(OCc2ccc(C(=O)Nc3ccc(S(=O)(=O)F)cc3)cc2)c(Cl)c1` came in with a Log 1/C of 6.92.

As for `CC1(C)N=C(N)N=C(N)N1c1ccc(CCC(=O)Nc2cccc(S(=O)(=O)F)c2)cc1`, the Log 1/C was determined as 7.74.

For the molecule `CC1(C)N=C(N)N=C(N)N1c1cccc(OCCCOc2ccc(S(=O)(=O)F)cc2)c1`, the Log 1/C was 7.96.

In turn, `CC1(C)N=C(N)N=C(N)N1c1cccc(CCCCc2ccc(Cl)c(S(=O)(=O)F)c2)c1` gave a Log 1/C of 8.37.

Regarding `CC1(C)N=C(N)N=C(N)N1c1ccc(OCc2cccc(C(=O)Nc3ccc(S(=O)(=O)F)cc3)c2)c(Cl)c1`, the Log 1/C turned out to be 6.92.

In turn, `CC1(C)N=C(N)N=C(N)N1c1cccc(CCCCc2cccc(S(=O)(=O)F)c2)c1` yielded a Log 1/C of 8.1.

`CC1(C)N=C(N)N=C(N)N1c1ccc(OCc2ccc(Cl)cc2S(=O)(=O)F)c(Cl)c1` had a Log 1/C of 7.52.

`CC1(C)N=C(N)N=C(N)N1c1ccc(OCc2ccccc2C(=O)Nc2ccc(S(=O)(=O)F)cc2)c(Cl)c1`: the Log 1/C is 7.24.

`Cc1cc(NC(=O)NCCCOc2ccc(N3C(N)=NC(N)=NC3(C)C)cc2Cl)ccc1S(=O)(=O)F` gave a Log 1/C of 8.06.

Take `CC1(C)N=C(N)N=C(N)N1c1ccc(OCCCNC(=O)Nc2cccc(S(=O)(=O)F)c2)cc1`: the Log 1/C came to 7.32.

Consider `CC1(C)N=C(N)N=C(N)N1c1ccc(OCc2cc(Cl)ccc2S(=O)(=O)F)c(Cl)c1`, for which the Log 1/C worked out at 7.27.

For `CC1(C)N=C(N)N=C(N)N1c1ccc(OCc2ccc(COc3ccc(S(=O)(=O)F)cc3)cc2)c(Cl)c1`, the Log 1/C amounted to 6.82.

`CCN(CC)C(=O)NCc1cccc(N2C(N)=NC(N)=NC2(C)C)c1` gave a Log 1/C of 6.11.

Molecule `CC1(C)N=C(N)N=C(N)N1c1ccc(Cl)c(CCc2ccc(S(=O)(=O)F)cc2)c1` registered a Log 1/C of 5.82.

Regarding `CC1(C)N=C(N)N=C(N)N1c1ccc(OCCOCCOc2ccc(S(=O)(=O)F)cc2)c(Cl)c1`, the Log 1/C came out at 7.14.

`CC1(C)N=C(N)N=C(N)N1c1cccc(CNC(=O)N2CCOCC2)c1` yielded a Log 1/C of 6.43.

With `CC1(C)N=C(N)N=C(N)N1c1ccc(CCc2ccc(Cl)c(S(=O)(=O)F)c2)c(Cl)c1`, the Log 1/C turned out to be 8.27.

For the molecule `CC1(C)N=C(N)N=C(N)N1c1ccc(CCC(=O)Nc2ccc(S(=O)(=O)F)cc2)cc1`, the Log 1/C came to 7.6.

`CC1(C)N=C(N)N=C(N)N1c1ccc(OCc2ccc(Cl)c(S(=O)(=O)F)c2)c(Cl)c1` yielded a Log 1/C of 8.

`CC1(C)N=C(N)N=C(N)N1c1ccc(OCCCOc2ccc(S(=O)(=O)F)cc2)c(Cl)c1` displayed a Log 1/C of 7.07.
